System: breast cancer
Test: mouse model for breast cancer, tumor mass and regrowth
Assay type: in vivo
Conditions: for tumor size and regrowth: followed to 180 days; for tumor regrowth / change in tumor mass on estrogen stimulation: stimulated with estrogen at day 115
Protocol: Carbendazim is administered to the mice at 4000, 5000, and 6000 mg/kg of body weight in a separate leg.

Structure (SMILES)	tumor size and regrowth (carbendazim at 4000, 5000 and 6000 mg/kg given after 130 days to mice that had been treated with cytoxan)	dose dependence of tumor growth (carbendazim at 4000, 5000 and 6000 mg/kg of body weight)	tumor size and regrowth (carbendazim at 4000, 5000 and 6000 mg/kg of body weight in a separate leg)	tumor regrowth / change in tumor mass on estrogen stimulation	tumor regrowth (cytoxan treated control, no carbendazim)
COC(=O)Nc1nc2ccccc2[nH]1 [Carbendazim, 2-methoxycarbonylamino-benzimidazole]	The tumor continued to decrease in size and its regrowth was limited even after 180 days	dose dependent	The tumor continued to decrease in size and its regrowth was limited even after 180 days	no significant change in tumor mass	–
O=P1(N(CCCl)CCCl)NCCCO1 (stereo not drawn) [cytoxan]	–	–	–	rapid regrowth	tumor regrowth after 100 days

Reference: patent US20010053773A1, “Method for inhibiting the growth of cancers” (The Procter & Gamble Company, priority 1998, published 2001)
